Measured values from ChEMBL document CHEMBL3870312, “Rational modification of donepezil as multifunctional acetylcholinesterase inhibitors for the treatment of Alzheimer's disease” (Eur J Med Chem, 2016).

Experiments:
Rattus norvegicus = species: Rattus norvegicus; test: Cytotoxicity against rat PC12 cells assessed as reduction in cell viability at 3.125 to 50 uM after 24 hrs by MTT assay; type: toxicity; settings: pc-12, 24 h
Cholinesterase [1] = molecular target: Cholinesterase (Equus caballus, UniProt P81908)
Sequence of Cholinesterase (Equus caballus, UniProt P81908) (P81908 whole entry): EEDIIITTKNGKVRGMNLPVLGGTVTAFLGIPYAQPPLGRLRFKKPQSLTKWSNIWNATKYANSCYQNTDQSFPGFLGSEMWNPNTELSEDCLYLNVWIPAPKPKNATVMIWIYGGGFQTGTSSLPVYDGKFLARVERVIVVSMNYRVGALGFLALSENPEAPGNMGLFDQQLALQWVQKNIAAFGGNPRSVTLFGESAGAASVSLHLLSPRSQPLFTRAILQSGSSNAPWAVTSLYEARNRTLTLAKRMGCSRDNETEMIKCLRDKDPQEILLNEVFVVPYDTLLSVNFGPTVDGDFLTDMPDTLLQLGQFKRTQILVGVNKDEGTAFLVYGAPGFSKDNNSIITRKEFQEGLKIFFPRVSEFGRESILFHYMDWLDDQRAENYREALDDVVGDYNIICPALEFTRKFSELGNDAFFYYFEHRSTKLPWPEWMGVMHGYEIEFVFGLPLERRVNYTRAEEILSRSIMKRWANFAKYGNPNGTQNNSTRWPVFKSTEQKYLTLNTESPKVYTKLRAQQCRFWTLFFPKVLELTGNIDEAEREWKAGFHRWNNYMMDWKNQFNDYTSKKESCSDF
Description: Inhibition of equine serum BuChE using s-butyrylthiocholine iodide as substrate preincubated for 5 mins followed by substrate addition measured up to 3 mins by Ellman's method

[2] = molecular target: Amyloid-beta precursor protein (Homo sapiens) (UniProt P05067); settings: at 20 µM
Sequence of Amyloid-beta precursor protein (Homo sapiens) (P05067 whole entry): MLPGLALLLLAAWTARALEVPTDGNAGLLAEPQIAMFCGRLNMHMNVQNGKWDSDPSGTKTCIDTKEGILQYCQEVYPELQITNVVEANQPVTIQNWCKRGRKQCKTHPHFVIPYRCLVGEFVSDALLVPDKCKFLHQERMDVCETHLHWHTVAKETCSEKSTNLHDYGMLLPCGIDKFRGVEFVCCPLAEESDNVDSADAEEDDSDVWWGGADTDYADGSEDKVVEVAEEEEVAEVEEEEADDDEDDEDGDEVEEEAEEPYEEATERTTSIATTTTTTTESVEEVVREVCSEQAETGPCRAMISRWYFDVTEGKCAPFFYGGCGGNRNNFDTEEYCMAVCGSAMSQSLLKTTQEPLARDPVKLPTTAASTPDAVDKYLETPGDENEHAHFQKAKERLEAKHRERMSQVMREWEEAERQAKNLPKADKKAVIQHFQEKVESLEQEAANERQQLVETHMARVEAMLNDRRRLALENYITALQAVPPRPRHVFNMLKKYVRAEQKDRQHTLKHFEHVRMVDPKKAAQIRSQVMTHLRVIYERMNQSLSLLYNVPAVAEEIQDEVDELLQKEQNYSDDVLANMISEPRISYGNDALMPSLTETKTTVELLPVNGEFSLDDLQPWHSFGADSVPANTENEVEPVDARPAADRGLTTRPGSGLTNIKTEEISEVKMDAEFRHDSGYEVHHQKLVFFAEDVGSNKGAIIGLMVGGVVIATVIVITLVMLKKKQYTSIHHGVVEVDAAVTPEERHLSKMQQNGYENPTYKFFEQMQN
Description: Inhibition of self-mediated aggregation of amyloid beta (1 to 42 residues) (unknown origin) at 20 uM incubated for 46 to 48 hrs by Thioflavin T binding assay relative to control

Acetylcholinesterase [3] = molecular target: Acetylcholinesterase (Homo sapiens, UniProt P22303)
Sequence of Acetylcholinesterase (Homo sapiens, UniProt P22303) (P22303 whole entry): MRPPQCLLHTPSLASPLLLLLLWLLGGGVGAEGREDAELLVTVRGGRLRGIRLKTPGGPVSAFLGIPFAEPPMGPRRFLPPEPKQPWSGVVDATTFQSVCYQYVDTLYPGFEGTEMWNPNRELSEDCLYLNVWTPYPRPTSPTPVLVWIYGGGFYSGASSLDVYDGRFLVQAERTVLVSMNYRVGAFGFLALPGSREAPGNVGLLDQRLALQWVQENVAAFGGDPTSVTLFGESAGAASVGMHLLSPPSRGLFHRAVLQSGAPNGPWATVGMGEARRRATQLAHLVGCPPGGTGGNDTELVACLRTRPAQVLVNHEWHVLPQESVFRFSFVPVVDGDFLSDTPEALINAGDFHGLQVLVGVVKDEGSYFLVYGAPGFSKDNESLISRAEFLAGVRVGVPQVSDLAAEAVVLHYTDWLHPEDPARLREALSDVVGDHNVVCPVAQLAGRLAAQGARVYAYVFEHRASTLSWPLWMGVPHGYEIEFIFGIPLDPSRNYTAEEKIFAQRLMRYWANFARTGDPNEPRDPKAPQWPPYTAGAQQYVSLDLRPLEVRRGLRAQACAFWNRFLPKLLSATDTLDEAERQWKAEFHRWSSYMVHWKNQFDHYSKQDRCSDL
Description: Inhibition of human erythrocytes AChE using acetylthiocholine iodide as substrate preincubated for 5 mins followed by substrate addition measured up to 3 mins by Ellman's method

Cholinesterase [4] = molecular target: Cholinesterase (Homo sapiens, UniProt P06276)
Sequence of Cholinesterase (Homo sapiens, UniProt P06276) (P06276 whole entry): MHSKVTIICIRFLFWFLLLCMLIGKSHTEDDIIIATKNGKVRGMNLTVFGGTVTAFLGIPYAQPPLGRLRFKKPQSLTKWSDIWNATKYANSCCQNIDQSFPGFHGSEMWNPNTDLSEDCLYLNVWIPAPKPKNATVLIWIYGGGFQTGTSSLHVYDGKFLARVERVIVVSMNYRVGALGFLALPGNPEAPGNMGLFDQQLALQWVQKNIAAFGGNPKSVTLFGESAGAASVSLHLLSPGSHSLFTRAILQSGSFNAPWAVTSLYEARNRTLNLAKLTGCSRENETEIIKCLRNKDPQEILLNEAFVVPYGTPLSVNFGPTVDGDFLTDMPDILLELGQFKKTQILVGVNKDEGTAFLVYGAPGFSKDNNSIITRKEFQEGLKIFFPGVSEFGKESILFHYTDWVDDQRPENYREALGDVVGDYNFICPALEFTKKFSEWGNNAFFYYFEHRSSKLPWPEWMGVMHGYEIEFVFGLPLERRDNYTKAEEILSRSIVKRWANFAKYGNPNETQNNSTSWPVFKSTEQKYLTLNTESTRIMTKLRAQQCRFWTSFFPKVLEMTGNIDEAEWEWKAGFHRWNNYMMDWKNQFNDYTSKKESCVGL
Description: Inhibition of human serum BuChE using s-butyrylthiocholine iodide as substrate preincubated for 5 mins followed by substrate addition measured up to 3 mins by Ellman's method

Acetylcholinesterase [5] = molecular target: Acetylcholinesterase (Electrophorus electricus, UniProt O42275)
Sequence of Acetylcholinesterase (Electrophorus electricus, UniProt O42275) (O42275 whole entry): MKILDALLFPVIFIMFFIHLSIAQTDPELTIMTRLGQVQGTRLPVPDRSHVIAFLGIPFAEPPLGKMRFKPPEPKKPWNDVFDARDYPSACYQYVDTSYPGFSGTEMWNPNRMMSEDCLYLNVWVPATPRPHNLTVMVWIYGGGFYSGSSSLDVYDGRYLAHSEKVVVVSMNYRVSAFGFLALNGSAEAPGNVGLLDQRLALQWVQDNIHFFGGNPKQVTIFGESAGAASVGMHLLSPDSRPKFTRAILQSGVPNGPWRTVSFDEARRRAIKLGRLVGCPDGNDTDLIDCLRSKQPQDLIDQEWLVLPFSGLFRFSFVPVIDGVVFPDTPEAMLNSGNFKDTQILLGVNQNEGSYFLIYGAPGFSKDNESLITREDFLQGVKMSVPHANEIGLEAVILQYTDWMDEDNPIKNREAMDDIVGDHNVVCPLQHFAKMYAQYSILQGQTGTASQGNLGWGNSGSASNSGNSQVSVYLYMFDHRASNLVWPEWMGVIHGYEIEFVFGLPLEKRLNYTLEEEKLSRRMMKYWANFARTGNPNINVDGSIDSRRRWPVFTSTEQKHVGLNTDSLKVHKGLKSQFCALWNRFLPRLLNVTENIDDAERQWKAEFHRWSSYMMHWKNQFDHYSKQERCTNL
Description: Inhibition of electric eel AChE using acetylthiocholine iodide as substrate preincubated for 5 mins followed by substrate addition measured up to 3 mins by Ellman's method

in vitro = settings: PAMPA
Description: Effective permeability of the compound after 18 hrs by PAMPA

| Structure (SMILES) | Activity (Rattus norvegicus) | IC50 (Cholinesterase [1]) [µM] | inhibition [2] [%] | IC50 (Acetylcholinesterase [3]) [µM] | IC50 (Cholinesterase [4]) [µM] | IC50 (Acetylcholinesterase [5]) [µM] | Papp at 18 h (in vitro) [×10⁻⁶ cm/s] |
| --- | --- | --- | --- | --- | --- | --- | --- |
| COc1cc2c(cc1OC)C(=O)C(CC1CCN(Cc3ncccc3C)CC1)C2 (stereo not given) | Non-Toxic | 15.6 | 29.3 | 0.113 | 49.2 | 0.108 | 8.4 |
| COc1cc2c(cc1OC)C(=O)C(CC1CCN(Cc3cccc(C(F)(F)F)c3)CC1)C2 (stereo not given) |  | 18.2 |  | 2.12 | 76.9 | 0.197 |  |
| COc1cc2c(cc1OC)C(=O)C(CC1CCN(Cc3ccccc3[N+](=O)[O-])CC1)C2 (stereo not given) |  | 31.1 |  | 3.11 | 91.2 | 0.106 |  |
| COc1cc2c(cc1OC)C(=O)C(CC1CCN(Cc3ccccc3)CC1)C2 (stereo not given) |  |  | > 10 |  |  |  |  |
| COc1cc2c(cc1OC)C(=O)C(CC1CCN(Cc3ccccc3Cl)CC1)C2 (stereo not given) |  | 3.2 |  | 0.097 | 18.8 | 0.06 |  |
| COc1cc2c(cc1OC)C(=O)C(CC1CCN(Cc3cccc(F)n3)CC1)C2 (stereo not given) |  | 21.1 |  | 0.195 | 38.9 | 0.246 |  |
| COc1cc2c(cc1OC)C(=O)C(CC1CCN(Cc3ncc(C)cc3C)CC1)C2 (stereo not given) |  | 6.31 |  | 0.814 | 8.55 | 1.01 |  |
| COc1cc2c(cc1OC)C(=O)C(CC1CCN(Cc3ccccc3C)CC1)C2 (stereo not given) |  | 38.1 |  | 0.243 |  | 0.184 |  |
| COc1cc2c(cc1OC)C(=O)C(CC1CCN(Cc3ccc4ccccc4n3)CC1)C2 (stereo not given) |  | 9.68 |  | 8.43 | 6.35 | 8.71 |  |
| COc1cc2c(cc1OC)C(=O)C(CC1CCN(Cc3ccc(F)cc3)CC1)C2 (stereo not given) |  | 2.31 |  | 0.041 | 8.13 | 0.13 |  |
| COc1cc2c(cc1OC)C(=O)C(CC1CCN(Cc3cccc(Br)n3)CC1)C2 (stereo not given) |  | 17.5 |  | 1.98 |  | 0.253 |  |
| COc1cc2c(cc1OC)C(=O)C(CC1CCN(Cc3cccc(Cl)n3)CC1)C2 (stereo not given) |  | 31.6 |  | 0.883 | 78.7 | 0.409 |  |
| COc1cc2c(cc1OC)C(=O)C(CC1CCN(Cc3cccc(F)c3)CC1)C2 (stereo not given) |  | 2.66 | > 10 | 0.054 | 26.7 | 0.068 | 11.5 |
| COc1cc2c(cc1OC)C(=O)C(CC1CCN(Cc3ccccc3C(F)(F)F)CC1)C2 (stereo not given) |  | 31.7 |  | 4.87 | 41.4 | 0.7 |  |
| COc1cc2c(cc1OC)C(=O)C(CC1CCN(Cc3cccc(Cl)c3)CC1)C2 (stereo not given) |  | 68.9 |  | 0.114 | 50.2 | 0.237 |  |
